Earlier results on 1 compound are cited in US20150031737A1, “STABILIZED CONTROLLED-RELEASE PHARMACEUTICAL COMPOSITION COMPRISING GLICLAZIDE” (RANBAXY LABORATORIES LIMITED, priority 2012, published 2015).

On to `Cc1ccc(S(=O)(=O)NC(=O)NN2CC3CCCC3C2)cc1` (stereo not shown) [Gliclazide], for which the pKa entry is reported as “about 5.8”.
